Here are results for 88 molecules from a melting point compilation (Tetko et al.; mined from patent text by program, amines drawn as free bases though some values may be those of a salt).

By melting point is commonly meant the temperature of the solid-liquid transition. `CC(C)(C)OC(=O)N1CCC(c2nc(-c3ccncc3)c(-c3ccc(F)cc3)[nH]2)CC1` yielded a melting point of 157 to 160 °C.
The value for `CCN1C[C@@H](O)[C@H](N(C(=O)c2ccc(Cl)cc2)C2CCCCC2)C1` (relative stereo) was 111 to 116 °C; that for `O=C(NC(CCl)CCOc1ccc(Br)cc1)c1c(F)cccc1F` (stereo not drawn) was 116 to 119 °C.
Consider `CNC(=O)C1=C(OC(C)C)c2cc(OC)ccc2S1=O` (stereo not drawn), for which the melting point lay within 123 to 124 °C.
For `COC(=O)c1ccc(OC)cc1NC(C)=O`, the melting point is 123 to 126 °C.
The value for `COC(=O)c1ccc(Nc2ccn(-c3ccccc3)n2)cc1` was 160 to 161 °C; that for `O=c1c2ccc(Cl)cc2[nH]c2c(=O)n(-c3ccc(F)cc3)nc(O)c12` was 390 to 392 °C; that for `CNC(=O)C(C(=O)NC(Cc1ccccc1)C(O)CNCC(O)C(Cc1ccccc1)NC(=O)OC(C)(C)C)C(C)(C)C` (stereo not drawn) was 117 to 120 °C.
The same measure for `COCCC(=O)N[C@H]1CC[C@H](CCN2CCC(c3ccc(F)c4occc34)CC2)CC1`: 177 °C.
The same measure for `Cc1oc(-c2ccccc2)nc1COc1cccc(C=O)c1`: 67 to 68 °C.
Consider `N#Cc1c(N2CCN(C(=O)c3cccs3)CC2)c2cccnc2n(CC2CC2)c1=O`, for which the melting point came to 189 °C.
The value for `CC(C)(C)OC(=O)c1cc2ccccc2[nH]1` was 104 to 105 °C.
In turn, `N#Cc1c2n(c3ccccc13)CCNCC2` showed a melting point of 161 to 164 °C.
`O=C1OC2(CC(c3ccccc3C(F)(F)F)=NO2)c2ccccc21` (stereo not drawn): the melting point was in the range of 149 to 150 °C.
As for `CC(C)CC(NC(=O)C(Cc1c[nH]cn1)NC(=O)C(Cc1cccc2ccccc12)Cc1cccc2ccccc12)C(O)C(=O)OC(C)C` (stereo not drawn), the melting point fell in the range of 93 to 98 °C.
For the molecule `COC(=O)c1cc(-n2c(OC)nc(C(F)(F)C(F)(F)F)cc2=O)c(F)cc1Cl`, the melting point lay within 80 to 82 °C.
The molecule `c1ccc(-c2ccc3[nH]c4ccc(-c5ccccc5)cc4c3c2)cc1` registered a melting point of 145 to 147 °C.
The molecule `CCS(=O)(=O)N[C@H](C(=O)NCc1ccc(O)c(OC)c1)C(C)C` came in with a melting point of 49 to 50 °C.
The same measure for `O=C(O)c1cc2cc(F)c(F)cc2o1`: 270 °C.
The same measure for `CC(C)c1cccc(C(C)C)c1NC(=O)[C@H](Cc1ccccc1)NC(=O)OCC1c2ccccc2-c2ccccc21`: 210 to 212 °C; for `O=C1N(Cc2ccc(Cl)s2)c2cccc(-c3ccoc3)c2C12COc1cc3c(cc12)OCO3` (stereo not drawn): 166 to 168 °C.
Molecule `N#Cc1ccc(CN2C(=O)C3(COc4cc5c(cc43)CCO5)c3ccccc32)cc1` (stereo not drawn) showed a melting point of 69 to 71 °C.
With `Cn1cc([N+](=O)[O-])nc1C(=O)Cl`, the melting point lay in the range of 126 to 128 °C.
With `N#CCc1cc(Cl)cc(Cl)c1Cl`, the melting point was in the range of 60 to 62 °C.
`Nc1ccc2ccc(Oc3ccc(F)cc3)nc2n1` had a melting point of 210 °C.
The same measure for `CCCCCS(=O)(=O)NC(=O)/C=C/c1ccc(OCCCOCC2CC2)cc1Oc1ncc(C(F)(F)F)cc1Cl`: 124 to 125 °C; for `BrCc1ccc2ccccc2n1`: 33 to 37 °C.
`CCCCCC(CC(=O)Nc1cc(C(=O)NC(=O)C(C)(C)C)ccc1C(C)(C)C)c1ccc(OC)cc1OC` (stereo not drawn) showed a melting point of 170 to 172 °C.
The same measure for `Cc1ccc(-c2ccccc2C(=O)NC(C)(C)C)cc1`: 105 to 106 °C; for `Ic1ccc2c(c1)C(c1ccccc1)=NCc1nnc(Cc3ccccc3)n1-2`: 200 to 201 °C; for `CC(C)N(CCC(C#N)c1ccc(-c2ccccc2)cc1)C(C)C` (stereo not drawn): 54 to 56 °C.
The same measure for `O=c1[nH]cnc2c(Br)scc12`: 226 to 229 °C; for `O=C1CCCc2c(cccc2OCC2CO2)N1` (stereo not drawn): 121 to 123 °C.
The molecule `Clc1cc2c(nc1-c1ccccc1Br)OCC2` had a melting point of 106 to 117 °C.
Molecule `O=C1NC(=O)C(c2ccccc2)=C1Nc1cccc(Cl)c1` returned a melting point of 188 °C.
The same measure for `CCCCCCCCC(SCCCCCC)C(=O)Nc1c(SC)cc(NC(C)=O)c2ncc(C)cc12` (stereo not drawn): 128 to 131 °C; for `N#Cc1cccc(-c2nc(N3CCC(CC(=O)O)CC3)cc3cccnc23)c1`: 178 to 180 °C; for `CC(=O)NCC1CN(c2ccc(-n3cnc(Cn4cccn4)c3)c(F)c2)C(=O)O1` (stereo not drawn): 158 to 160 °C.
`CCOC(=O)CC(=O)Nc1c(C(=O)OC)cccc1C(F)(F)F`: the melting point stood at 87 °C.
Molecule `O=C(O)c1nc2n(n1)-c1cc(Cl)ccc1N(c1ccc(Cl)cc1Cl)C2` showed a melting point of 218 to 222 °C.
Take `C=CCn1c(=O)n(S(=O)(=O)c2ccc(Cl)cc2)c(=O)c2ccc(Cl)cc21`: the melting point lay within 161 to 163 °C.
As to `CCCc1cc(C(O)(CC)CC)ccc1-c1cc(OCc2ccc(CO)c(CO)c2)ccc1CC`, the melting point worked out at 101 °C.
The same measure for `CCOC(=O)Nc1ccc2c(c1)C(c1ccccc1Cl)=CCC(=O)N2`: 241 °C; for `Cc1ccc2oc(-c3ccc(C=Cc4ccc(C(=O)O)cc4)cc3)cc2c1`: 355 to 358 °C; for `COCOc1ccc(-c2ncc3ncc(N4CCNCC4=O)cc3n2)cc1`: 200 to 202 °C.
The value for `CCOC(=O)C(C)(C)Oc1cc2c(cc1C)OC1(CC(C)(C)c3cc(O)c(C)cc3O1)CC2(C)C` (single isomer, unassigned; (-)) was 165 to 166 °C; that for `CNC(=O)c1c(SC)c2cc(OC)ccc2n1C` was 137 to 139 °C.
`COc1ccc2c(c1)c(-c1[nH]c3nccnc3c1C)cn2C` returned a melting point of 243 to 244 °C.
The value for `COc1nc(CNC(=O)NS(=O)(=O)c2ccccc2S(=O)(=O)N(C)C)nc(OC)n1` was 183 to 189 °C; that for `C#CCN(C(=O)c1cn(C)cc1C(F)(F)F)c1cccc2c1C(C)CC2(C)C` (stereo not drawn) was 142 to 144 °C.
The value for `CCC(C)Sc1cc(C(F)(F)F)ccc1C(=O)O` (stereo not drawn) was 99.8 to 101 °C; that for `CNC(=O)C(=NOC)c1ccccc1COc1ccc2c(c1)OCC2=O` was 149 to 151 °C.
The value for `CCOC(=O)c1c(C)nc(NCCCN(C)C)c2nnn(CC)c12` was 30 to 34 °C; that for `CONS(=O)(=O)c1ccc(Cl)s1` was 65.5 to 66.5 °C; that for `CC(O)(CCO)c1ccc(Oc2ccccc2)cc1` (stereo not drawn) was 74 to 75 °C.
Take `Cc1cc2ccc3c(c2o1)OC(CN1CC=C(c2c[nH]c4ccccc24)CC1)CO3` (stereo not drawn): the melting point fell in the range of 198 to 200 °C.
The same measure for `CC(C)(C)[Si](C)(C)Oc1ccc(NC(=O)CBr)cc1`: 112 to 113 °C; for `CC(C)C[C@H](NC(=O)OCC1CCCCC1)C(=O)NC(C)(C)C(=O)c1c(-c2ccccc2)c1=O`: 42 to 49 °C; for `CCCCCCCCCCCCCCOCc1ccc(C=C2C(=O)C3(C)CCC2C3(C)C)cc1` (stereo not drawn): 35 °C.
Regarding `Brc1ccc(-c2ccncc2)cc1`, the melting point fell in the range of 123 to 124 °C.
`O=C(O)c1cc(C(=O)O)c2cc(Cc3ccc(F)cc3)cnc2c1O` returned a melting point of 279 to 282 °C.
The same measure for `COc1ccc(C(=O)CC(=O)C(C)(C)C)cc1C(=O)CC(=O)C(C)(C)C`: 69.4 to 70.8 °C; for `CCN(CC)c1ncnc2nc(-c3ccncc3)[nH]c12`: 260 to 262 °C.
On to `Nc1nc2ccccc2c2c1ncn2CCCCNC(=O)N1CCOCC1`, for which the melting point was in the range of 177 to 180 °C.
In turn, `Cc1ccc(Nc2ncc(C#N)c(-c3ccc(C(C)(C)N)cc3)n2)cc1F` showed a melting point of 209 °C.
The value for `CCn1nc(C(C)C)c2c1C(=NC#N)NCC(c1ccccc1)=N2` was 222 °C; that for `CCCCOCCOc1ccc(-c2ccc(N(C)Cc3cnn(C)c3)c(C=C(C)C(=O)O)c2)cc1` was 140 °C.
The same measure for `Cc1nccc(CO)c1OCc1ccccc1`: 130 to 131 °C; for `COc1ccc(C2=NN(c3cc(C)c4c(C)nn(C)c4n3)C(=O)[C@H]3CC=CC[C@@H]23)cc1Cl` (relative stereo): 217 to 219 °C.
The value for `CC(=O)N1C(=CC(C#N)=C2OC(CO)CN2C)C(=O)c2ccccc21` (stereo not drawn) was 218 to 220 °C; that for `CC(=O)OC1CSC(Oc2cncc(-c3cc4ccccc4o3)c2)C(OC(C)=O)C1OC(C)=O` (stereo not drawn) was 125 °C; that for `CCCCCCCCCCCCCCCCNc1ccc(C(=O)OCC(O)CO)cc1` (stereo not drawn) was 112 °C.
`CCOP(C)(=O)CC(Cc1ccccc1)NS(=O)(=O)c1ccc(C)cc1` (stereo not drawn) had a melting point of 121 to 122 °C.
On to `O=C(NC1=NN(c2ccc(Cl)cc2)C(c2ccccc2)C1)C(F)(F)F` (stereo not drawn), for which the melting point was 176 to 178 °C.
The value for `Cc1ccnc(NC(=O)Nc2cccc3c2C2CCCCN2C3=O)c1` (stereo not drawn) was 178 to 180 °C; that for `CC1(C)CCCC(N2CCN(C3CCC(C(C)(C)C)CC3)CC2)C1` (stereo not drawn) was 90 to 92 °C; that for `COc1cc(C)cc2nc(S(=O)(=O)Nc3cc(C)cnc3F)nn12` was 262 to 264 °C.
The value for `CCOC(=O)NC(=O)C(C#N)=CNNc1ccc(OC(F)F)cc1` was 144 to 146 °C.
The same measure for `Cc1cc(C)cc(Sc2c(CC#N)nc(C)n2C)c1`: 81 to 82 °C; for `CCON1CCC(NC(=O)Cc2c(C)cc(C)cc2C)(C(=O)OC)CC1`: 131 to 132 °C.
As for `CC1OC(C)(C)c2cc(-c3ccc(C#N)n3C(=O)OC(C)(C)C)ccc2N1C(=O)OCC1c2ccccc2-c2ccccc21` (stereo not drawn), the melting point was 135 to 136 °C.
The value for `CCOC(=O)CCCC(=O)c1ccc(OCCCCCBr)c(CCC(=O)OCC)c1` was 48 to 49 °C.
The value for `CCOCc1nc2c(N)nc3cc(-c4ccc(Cl)c(Cl)c4)cnc3c2n1CC(C)(C)O` was 144 to 147 °C; that for `Cc1cc(C(=O)CBr)c(C)o1` was 56 to 58 °C.
For `Cn1c(CCC#Cc2cccc(CF)n2)nc2ccccc21`, the melting point fell in the range of 95.3 to 96.3 °C.
The same measure for `ON=Cc1cc2c(cn1)[nH]c1ccccc12`: 157 to 159 °C; for `ClC(Cl)(Cl)c1nnc(-c2cccc3ccccc23)o1`: 90 to 91.5 °C.
The same measure for `N#Cc1ccc(NC2CCN(Cc3cc(F)c(F)c(F)c3)CC2)nn1`: 185 °C.
